Assay results from ChEMBL document CHEMBL1201862, “PubChem BioAssay data set” (2004).
Active and inactive are the calls of the source.

Tests used:
Candida albicans [1] = assay: Candida growth effect without fluconazole – C. albicans CaCi-2, dry powder, counter-screen for antifungal drug resistance project, dose response (AID 488802); assay type: functional, organism-based
Candida albicans [2] = assay: antifungal activity against resistant Candida strain – CaCi-8, fluconazole, Alamar Blue, dry powder, dose response (AID 488807); assay type: functional, organism-based
Candida albicans [3] = assay: C. albicans growth inhibition with fluconazole – CaCi-2 strain, Alamar Blue, dry powder, set 4, dose response (AID 488943); assay type: functional, organism-based
Candida albicans [4] = assay: fluconazole-resistant Candida strain growth inhibitors – CaCi-8 strain, dry powder, set 4, dose response (AID 488950); assay type: functional, organism-based
Hexokinase HKDC1 = molecular target: T1, Hexokinase HKDC1 (Homo sapiens, UniProt Q2TB90); assay: SAR analysis of small molecule inhibitors of hexokinase domain containing I (HKDC1). [Related pubchem assays (depositor defined):AID493160, AID493190]; assay type: functional
T1 sequence (Q2TB90 whole entry): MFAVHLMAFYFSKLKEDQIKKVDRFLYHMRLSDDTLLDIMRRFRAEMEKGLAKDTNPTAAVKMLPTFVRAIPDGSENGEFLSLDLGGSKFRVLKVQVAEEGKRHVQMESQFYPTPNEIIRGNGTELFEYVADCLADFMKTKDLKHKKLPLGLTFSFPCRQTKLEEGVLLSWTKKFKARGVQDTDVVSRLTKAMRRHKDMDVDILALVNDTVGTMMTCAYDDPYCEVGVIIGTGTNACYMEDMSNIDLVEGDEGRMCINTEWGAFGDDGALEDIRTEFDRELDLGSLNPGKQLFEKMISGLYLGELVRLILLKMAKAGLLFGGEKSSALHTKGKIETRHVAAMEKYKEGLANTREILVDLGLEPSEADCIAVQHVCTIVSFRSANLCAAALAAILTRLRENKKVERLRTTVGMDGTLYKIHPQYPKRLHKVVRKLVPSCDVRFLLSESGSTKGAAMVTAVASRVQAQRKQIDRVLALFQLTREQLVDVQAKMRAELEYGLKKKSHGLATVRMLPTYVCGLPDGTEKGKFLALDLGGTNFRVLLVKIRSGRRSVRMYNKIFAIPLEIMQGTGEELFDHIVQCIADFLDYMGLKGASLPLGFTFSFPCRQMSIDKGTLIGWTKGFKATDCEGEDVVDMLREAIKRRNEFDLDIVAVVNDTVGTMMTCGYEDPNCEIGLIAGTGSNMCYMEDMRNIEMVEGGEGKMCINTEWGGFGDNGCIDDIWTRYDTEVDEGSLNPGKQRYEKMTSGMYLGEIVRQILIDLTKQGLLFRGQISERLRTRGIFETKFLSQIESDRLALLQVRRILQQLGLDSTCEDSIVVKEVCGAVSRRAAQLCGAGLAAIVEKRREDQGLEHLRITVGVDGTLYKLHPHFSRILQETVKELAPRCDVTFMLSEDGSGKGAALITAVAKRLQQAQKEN

Hexokinase-1 = Hexokinase-1 (Homo sapiens, UniProt P19367); assay: SAR analysis of small molecule inhibitors of hexokinase domain containing I (HKDC1) in the hexokinase 1 selectivity assay. [Related pubchem assays (depositor defined):AID493160, AID493190]; assay type: functional
[5] = molecular target: G-protein coupled receptor 55 (Homo sapiens, UniProt Q9Y2T6); assay: selective activators of receptor GPR55 – imaging, U2OS cells, beta-arrestin-GFP redistribution, primary screen (AID 1961); assay type: functional
[6] = molecular target: T2, Dual specificity protein phosphatase 6 (Rattus norvegicus, UniProt Q64346); assay: inhibition of rat DUSP6 enzyme activity – biochemical, in vitro, primary screen (AID 425)
T2 sequence (Q64346 whole entry): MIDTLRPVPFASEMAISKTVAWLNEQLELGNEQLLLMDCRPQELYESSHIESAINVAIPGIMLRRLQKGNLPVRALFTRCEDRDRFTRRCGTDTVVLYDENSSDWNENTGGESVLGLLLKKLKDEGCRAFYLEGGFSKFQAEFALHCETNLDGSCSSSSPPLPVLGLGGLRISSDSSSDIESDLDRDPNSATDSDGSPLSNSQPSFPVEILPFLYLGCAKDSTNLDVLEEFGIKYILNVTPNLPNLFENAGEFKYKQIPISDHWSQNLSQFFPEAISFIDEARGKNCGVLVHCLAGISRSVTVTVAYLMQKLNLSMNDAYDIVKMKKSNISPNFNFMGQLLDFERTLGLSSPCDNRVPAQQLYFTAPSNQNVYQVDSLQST

Beta-galactosidase = Beta-galactosidase (Escherichia coli, UniProt Q8VNN2); assay: PubChem AID 485352; assay type: functional
Beta-galactosidase, sequence (Q8VNN2 whole entry): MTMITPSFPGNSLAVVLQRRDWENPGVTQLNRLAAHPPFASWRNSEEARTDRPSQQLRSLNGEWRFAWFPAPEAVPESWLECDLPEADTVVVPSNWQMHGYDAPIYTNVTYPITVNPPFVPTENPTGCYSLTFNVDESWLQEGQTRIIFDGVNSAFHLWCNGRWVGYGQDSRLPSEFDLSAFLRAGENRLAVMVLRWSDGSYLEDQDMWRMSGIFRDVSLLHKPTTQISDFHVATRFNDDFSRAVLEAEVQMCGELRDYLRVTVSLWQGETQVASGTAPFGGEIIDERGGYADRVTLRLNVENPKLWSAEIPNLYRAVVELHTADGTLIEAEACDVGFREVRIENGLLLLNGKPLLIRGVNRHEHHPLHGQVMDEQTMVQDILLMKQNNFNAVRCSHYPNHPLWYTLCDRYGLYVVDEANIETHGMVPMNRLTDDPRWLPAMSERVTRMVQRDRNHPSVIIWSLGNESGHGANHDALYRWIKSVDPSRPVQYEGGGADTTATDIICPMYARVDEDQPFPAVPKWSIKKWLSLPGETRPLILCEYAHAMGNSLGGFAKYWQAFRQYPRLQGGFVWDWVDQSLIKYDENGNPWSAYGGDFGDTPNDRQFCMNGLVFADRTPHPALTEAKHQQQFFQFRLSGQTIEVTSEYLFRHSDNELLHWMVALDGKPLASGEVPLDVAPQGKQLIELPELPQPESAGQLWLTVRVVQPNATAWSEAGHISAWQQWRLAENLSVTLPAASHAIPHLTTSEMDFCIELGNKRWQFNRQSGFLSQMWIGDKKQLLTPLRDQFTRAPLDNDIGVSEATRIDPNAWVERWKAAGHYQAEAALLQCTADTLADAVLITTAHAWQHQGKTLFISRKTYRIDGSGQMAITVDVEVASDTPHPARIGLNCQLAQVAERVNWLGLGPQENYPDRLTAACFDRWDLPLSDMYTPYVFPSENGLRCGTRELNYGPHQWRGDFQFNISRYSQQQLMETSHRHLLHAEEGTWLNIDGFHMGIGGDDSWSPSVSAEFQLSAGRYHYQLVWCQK

[7] = molecular target: T3, Voltage-gated N-type calcium channel alpha-1B subunit/Amyloid beta A4 precursor protein-binding family A member 1 (Homo sapiens, UniProt Q00975+Q02410); assay type: protein assay
T3 sequence (Q00975 whole entry): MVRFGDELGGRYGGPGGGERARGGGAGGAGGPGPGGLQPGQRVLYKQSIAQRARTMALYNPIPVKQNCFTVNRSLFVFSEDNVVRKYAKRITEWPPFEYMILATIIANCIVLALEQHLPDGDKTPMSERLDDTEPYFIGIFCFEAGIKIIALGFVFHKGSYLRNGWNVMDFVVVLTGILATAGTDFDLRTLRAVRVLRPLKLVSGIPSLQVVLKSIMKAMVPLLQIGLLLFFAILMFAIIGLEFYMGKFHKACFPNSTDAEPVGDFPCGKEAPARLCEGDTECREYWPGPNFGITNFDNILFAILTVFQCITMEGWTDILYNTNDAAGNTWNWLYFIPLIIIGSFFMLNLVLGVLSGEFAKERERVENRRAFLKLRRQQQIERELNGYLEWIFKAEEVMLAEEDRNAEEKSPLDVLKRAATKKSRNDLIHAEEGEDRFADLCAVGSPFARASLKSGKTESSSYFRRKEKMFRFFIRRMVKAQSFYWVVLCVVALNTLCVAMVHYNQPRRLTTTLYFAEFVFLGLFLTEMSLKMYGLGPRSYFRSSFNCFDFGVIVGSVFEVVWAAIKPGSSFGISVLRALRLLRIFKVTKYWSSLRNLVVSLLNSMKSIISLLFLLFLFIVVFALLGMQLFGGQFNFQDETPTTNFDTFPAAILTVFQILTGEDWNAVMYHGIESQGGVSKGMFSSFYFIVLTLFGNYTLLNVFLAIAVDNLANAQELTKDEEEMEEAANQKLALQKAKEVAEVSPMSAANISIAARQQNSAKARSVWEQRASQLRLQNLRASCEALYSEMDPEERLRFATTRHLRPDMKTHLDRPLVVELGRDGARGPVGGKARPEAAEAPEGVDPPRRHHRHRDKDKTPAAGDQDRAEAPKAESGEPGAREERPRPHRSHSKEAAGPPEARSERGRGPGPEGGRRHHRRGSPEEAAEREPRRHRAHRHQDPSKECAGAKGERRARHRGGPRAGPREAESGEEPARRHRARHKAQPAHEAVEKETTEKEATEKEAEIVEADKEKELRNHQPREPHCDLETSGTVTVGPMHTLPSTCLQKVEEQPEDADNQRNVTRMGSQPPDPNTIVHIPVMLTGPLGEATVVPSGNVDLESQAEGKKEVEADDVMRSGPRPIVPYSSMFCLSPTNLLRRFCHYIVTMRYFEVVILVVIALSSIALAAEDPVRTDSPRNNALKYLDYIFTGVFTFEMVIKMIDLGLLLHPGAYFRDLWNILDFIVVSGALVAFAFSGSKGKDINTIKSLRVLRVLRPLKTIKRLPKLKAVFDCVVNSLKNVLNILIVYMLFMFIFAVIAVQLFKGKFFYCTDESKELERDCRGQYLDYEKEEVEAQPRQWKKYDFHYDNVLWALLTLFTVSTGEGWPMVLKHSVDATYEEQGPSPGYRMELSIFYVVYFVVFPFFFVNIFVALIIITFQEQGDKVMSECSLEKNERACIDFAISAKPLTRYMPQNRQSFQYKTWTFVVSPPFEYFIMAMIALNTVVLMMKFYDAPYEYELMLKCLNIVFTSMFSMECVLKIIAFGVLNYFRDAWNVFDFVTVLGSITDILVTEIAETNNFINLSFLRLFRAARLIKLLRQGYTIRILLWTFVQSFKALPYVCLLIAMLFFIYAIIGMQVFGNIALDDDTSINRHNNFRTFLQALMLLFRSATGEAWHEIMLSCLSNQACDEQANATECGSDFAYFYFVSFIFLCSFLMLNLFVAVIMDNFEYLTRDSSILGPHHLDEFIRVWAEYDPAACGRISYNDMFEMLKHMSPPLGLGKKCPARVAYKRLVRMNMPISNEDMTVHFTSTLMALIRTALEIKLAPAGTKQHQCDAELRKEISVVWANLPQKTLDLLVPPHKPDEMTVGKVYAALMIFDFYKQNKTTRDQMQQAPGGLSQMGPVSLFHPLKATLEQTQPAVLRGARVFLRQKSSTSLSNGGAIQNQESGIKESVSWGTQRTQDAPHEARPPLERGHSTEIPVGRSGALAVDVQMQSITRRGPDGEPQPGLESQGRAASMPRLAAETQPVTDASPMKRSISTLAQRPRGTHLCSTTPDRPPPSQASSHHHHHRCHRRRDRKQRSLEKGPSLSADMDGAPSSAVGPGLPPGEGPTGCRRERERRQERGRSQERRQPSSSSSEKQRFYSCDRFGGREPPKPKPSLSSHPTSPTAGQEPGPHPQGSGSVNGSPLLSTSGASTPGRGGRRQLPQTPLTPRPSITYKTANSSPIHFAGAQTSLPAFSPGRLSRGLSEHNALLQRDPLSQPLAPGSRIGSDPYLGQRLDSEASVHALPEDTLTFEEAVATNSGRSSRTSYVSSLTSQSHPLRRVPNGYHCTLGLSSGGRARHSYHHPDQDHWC
T3 sequence (Q02410 whole entry): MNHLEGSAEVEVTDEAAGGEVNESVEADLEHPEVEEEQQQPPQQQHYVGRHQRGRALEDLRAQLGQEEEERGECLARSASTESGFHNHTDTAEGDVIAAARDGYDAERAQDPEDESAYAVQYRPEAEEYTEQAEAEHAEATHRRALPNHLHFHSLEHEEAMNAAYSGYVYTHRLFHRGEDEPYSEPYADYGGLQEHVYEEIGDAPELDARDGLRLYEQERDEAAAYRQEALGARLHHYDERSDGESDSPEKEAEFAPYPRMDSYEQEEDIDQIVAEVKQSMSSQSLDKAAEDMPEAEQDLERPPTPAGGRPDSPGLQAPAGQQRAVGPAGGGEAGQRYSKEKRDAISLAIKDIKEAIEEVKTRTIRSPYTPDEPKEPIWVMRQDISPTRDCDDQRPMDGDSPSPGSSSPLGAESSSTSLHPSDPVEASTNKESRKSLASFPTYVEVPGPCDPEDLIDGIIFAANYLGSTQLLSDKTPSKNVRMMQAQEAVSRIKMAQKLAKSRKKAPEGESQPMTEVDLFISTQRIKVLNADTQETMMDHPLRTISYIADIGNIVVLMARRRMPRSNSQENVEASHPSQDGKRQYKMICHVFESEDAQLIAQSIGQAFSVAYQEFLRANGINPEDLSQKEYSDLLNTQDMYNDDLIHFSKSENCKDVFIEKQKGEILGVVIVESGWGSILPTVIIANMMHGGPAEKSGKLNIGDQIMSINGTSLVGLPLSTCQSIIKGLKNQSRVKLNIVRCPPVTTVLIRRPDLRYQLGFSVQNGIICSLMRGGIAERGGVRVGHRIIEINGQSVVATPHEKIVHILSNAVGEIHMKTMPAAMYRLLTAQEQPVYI

[8] = molecular target: T4, Dual specificity protein phosphatase 3 (Homo sapiens, UniProt P51452); assay: VHR1 phosphatase inhibitors, primary screen, biochemical, absorbance, uHTS (AID 1654)
T4 sequence (P51452 whole entry): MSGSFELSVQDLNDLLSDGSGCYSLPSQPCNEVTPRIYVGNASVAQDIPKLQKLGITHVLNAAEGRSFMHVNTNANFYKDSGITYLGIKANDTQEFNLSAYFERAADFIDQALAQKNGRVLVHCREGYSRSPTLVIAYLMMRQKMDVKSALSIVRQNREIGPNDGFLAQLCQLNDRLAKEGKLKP

[9] = molecular target: Eukaryotic translation initiation factor 4H (Homo sapiens, UniProt Q15056); assay: eIF4H binding inhibition – biochemical, uHTS, fluorescence polarization, translation initiation inhibitor project, primary screen (AID 2012)
[10] = molecular target: T5, Apoptotic protease-activating factor 1 (Homo sapiens, UniProt O14727); assay: activation of Apaf-1 mediated apoptosis – fluorescent, uHTS hits, dose response (AID 588554); assay type: functional
T5 sequence (O14727 whole entry): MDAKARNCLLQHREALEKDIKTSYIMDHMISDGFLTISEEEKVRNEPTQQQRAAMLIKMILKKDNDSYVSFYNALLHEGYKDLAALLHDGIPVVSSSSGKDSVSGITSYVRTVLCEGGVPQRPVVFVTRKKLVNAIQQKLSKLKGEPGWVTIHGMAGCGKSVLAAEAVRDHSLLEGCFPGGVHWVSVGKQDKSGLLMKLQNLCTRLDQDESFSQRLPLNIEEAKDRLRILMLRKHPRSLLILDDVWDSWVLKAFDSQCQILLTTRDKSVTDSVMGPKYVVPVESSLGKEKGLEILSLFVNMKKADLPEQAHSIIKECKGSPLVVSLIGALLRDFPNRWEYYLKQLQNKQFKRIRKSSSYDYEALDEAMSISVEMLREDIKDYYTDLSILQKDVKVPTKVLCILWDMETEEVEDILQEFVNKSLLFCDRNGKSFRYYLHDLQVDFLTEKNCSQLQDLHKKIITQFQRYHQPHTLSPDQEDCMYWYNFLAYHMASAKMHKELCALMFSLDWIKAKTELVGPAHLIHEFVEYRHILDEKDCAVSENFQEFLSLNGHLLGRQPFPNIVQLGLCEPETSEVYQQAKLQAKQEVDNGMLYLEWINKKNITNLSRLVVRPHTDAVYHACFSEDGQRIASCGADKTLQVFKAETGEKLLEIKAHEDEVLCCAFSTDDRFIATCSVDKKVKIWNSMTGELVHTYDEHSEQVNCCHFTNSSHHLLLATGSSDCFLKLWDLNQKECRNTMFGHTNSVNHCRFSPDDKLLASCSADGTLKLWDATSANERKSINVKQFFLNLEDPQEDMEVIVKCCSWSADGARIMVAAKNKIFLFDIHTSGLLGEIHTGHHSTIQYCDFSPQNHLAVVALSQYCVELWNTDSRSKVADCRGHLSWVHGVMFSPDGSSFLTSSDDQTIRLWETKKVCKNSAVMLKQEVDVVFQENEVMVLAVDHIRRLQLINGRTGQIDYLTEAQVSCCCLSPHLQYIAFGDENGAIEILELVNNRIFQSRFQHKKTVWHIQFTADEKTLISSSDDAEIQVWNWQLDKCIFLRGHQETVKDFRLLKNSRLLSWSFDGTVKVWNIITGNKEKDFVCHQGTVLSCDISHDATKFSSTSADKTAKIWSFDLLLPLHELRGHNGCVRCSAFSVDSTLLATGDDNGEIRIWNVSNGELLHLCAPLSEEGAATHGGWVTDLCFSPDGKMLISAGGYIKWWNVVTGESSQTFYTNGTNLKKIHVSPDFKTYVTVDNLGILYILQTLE

[11] = molecular target: Eukaryotic translation initiation factor 4E (Mus musculus, UniProt P63073); assay: blockers of eIF4G binding by eIF4E – biochemical, TR-FRET, dose response (AID 855); assay type: functional;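 also: potency for disrupting eIF4E binding to eIF4GI seen as loss of FRET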
[12] = molecular target: T4, Dual specificity protein phosphatase 3; assay: VHR1 phosphatase inhibitors, biochemical (AID 1878)
[13] = molecular target: T3, Voltage-gated N-type calcium channel alpha-1B subunit/Amyloid beta A4 precursor protein-binding family A member 1; assay type: protein assay; remark: listed apart in the source
[14] = molecular target: Polyadenylate-binding protein 1 (Homo sapiens, UniProt P11940); assay: blockers of PABP interaction with poly(A) – biochemical, fluorescence polarization, […] (AID 2014)
[15] = molecular target: T6, Type-1 angiotensin II receptor (Homo sapiens, UniProt P30556); assay: antagonism of angiotensin II type 1 receptor – cell-based, uHTS hits, selectivity assay for APJ receptor antagonist project, dose response (AID 463214); assay type: functional;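 also: antagonist potency against angiotensin II stimulated AT1 response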
T6 sequence (P30556 whole entry): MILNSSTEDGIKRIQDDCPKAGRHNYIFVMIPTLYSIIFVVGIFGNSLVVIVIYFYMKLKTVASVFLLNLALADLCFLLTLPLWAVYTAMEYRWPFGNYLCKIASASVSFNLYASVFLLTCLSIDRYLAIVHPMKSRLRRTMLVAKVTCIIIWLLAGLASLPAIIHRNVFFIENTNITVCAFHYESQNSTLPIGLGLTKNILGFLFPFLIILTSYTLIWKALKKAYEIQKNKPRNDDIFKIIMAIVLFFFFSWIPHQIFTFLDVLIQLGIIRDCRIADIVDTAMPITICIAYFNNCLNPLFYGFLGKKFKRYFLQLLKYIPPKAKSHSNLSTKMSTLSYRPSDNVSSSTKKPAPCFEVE

[16] = molecular target: Beta-2 adrenergic receptor (Homo sapiens, UniProt P07550); assay: ADRB2 activation measured by internalization – cell-based, FAP fluorogen, flow cytometry, cherry pick 1, dose response (AID 588763); assay type: functional
Beta-2 adrenergic receptor, sequence (P07550 whole entry): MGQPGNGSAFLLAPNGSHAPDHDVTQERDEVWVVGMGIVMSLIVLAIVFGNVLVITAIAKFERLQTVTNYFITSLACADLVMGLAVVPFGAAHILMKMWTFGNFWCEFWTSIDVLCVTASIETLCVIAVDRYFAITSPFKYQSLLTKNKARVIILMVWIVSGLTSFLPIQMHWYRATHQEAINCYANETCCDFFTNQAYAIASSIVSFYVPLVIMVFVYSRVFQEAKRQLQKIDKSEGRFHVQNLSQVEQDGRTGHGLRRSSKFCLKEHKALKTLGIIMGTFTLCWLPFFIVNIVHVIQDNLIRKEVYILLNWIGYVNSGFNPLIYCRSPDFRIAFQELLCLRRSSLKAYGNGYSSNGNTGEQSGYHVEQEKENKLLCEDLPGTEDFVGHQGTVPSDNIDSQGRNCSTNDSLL

Jurkat = assay: SAR Analysis of small molecule inhibitors of […] specific antigen receptor-induced NF-kB activation in a Jurkat cell line using a luminescence assay - Set 3. [Related pubchem assays (depositor defined):AID435022, AID435025, AID465]; assay type: functional, cell-based; settings: Homo sapiens
HEK293 [17] = assay: SAR Analysis of small molecule inhibitors of B-cell specific antigen receptor-induced NF-kB activation in a HEK-293T cell line using a luminescence assay - Set 2. [Related pubchem assays (depositor defined):AID435022, AID435025, AID489021]; assay type: functional, cell-based; settings: Homo sapiens
HEK293 [18] = assay: HEK293T cell viability loss, resazurin readout – resazurin fluorescence, cytotoxicity control for NF-kB activator project, SAR follow-up (AID 493251); assay type: functional, cell-based; settings: Homo sapiens

Cc1ccc(C(=O)N2CCN(c3ccnc4cc(Cl)ccc34)CC2)cc1
AC50 (Candida albicans [1]): 31.8 µM (active)
AC50 (Candida albicans [2]): 7.07 µM (active)
AC50 (Candida albicans [3]): 1.78 µM (active)
AC50 (Candida albicans [4]): 1.33 µM (active)

Cc1ccc(S(=O)(=O)N2CCOCC2)cc1NC(=O)CSc1nnc2cc(C)c3ccccc3n12
IC50 (Hexokinase HKDC1): 43.2 µM (inactive)
IC50 (Hexokinase-1): 50.3 µM (inactive)
EC50 [5]: 17.4 µM (inactive)

COc1cc(/C=C2\SC(=O)N(c3cccc(Cl)c3)C2=O)cc([N+](=O)[O-])c1O
IC50 [6]: > 158 µM (not active)
EC50 (Beta-galactosidase): 30.8 µM (active)
IC50 [7]: 3.5 µM (active)
IC50 [8]: 3.03 µM (active)
IC50 [9]: 4.99 µM (active)
EC50 [10]: 5.8 µM (active)
IC50 [11]: 21.9 µM (active)
IC50 [12]: 2.21 µM (active)
IC50 [13]: > 50 µM (inactive)
IC50 [14]: > 100 µM (inactive)
IC50 [15]: 27.3 µM (not active)

CCCCN(C(=O)c1ccc(NC(=O)C(C)C)cc1)c1ccccc1
EC50 [16]: 0.049 µM (active)

COc1ccccc1NC(=O)CCc1nc(-c2ccc(C(C)(C)C)cc2)no1
IC50 (Jurkat): 0.665 µM (active)
IC50 (HEK293 [17]): 0.44 µM (active)
IC50 (HEK293 [18]): 56 µM (inactive)
